System: MYC protein in HeLa cells
Experiment: Immunoblotting of MYC protein in HeLa cell lysates
Type: cell-based, human
Conditions: for effect on MYC induction by i-CDK9: pretreatment before i-CDK9
Protocol: Figure 3. Induction of MYC mRNA production in response to sustained inhibition of CDK9 by i-CDK9 and the requirement of MYC's natural genomic structure in this process. (A) The indicated tumor cell lines were treated with i-CDK9 (0.5 μM) for 2–16 hr and the MYC mRNA levels, which were divided by those in the DMSO-treated cells and averaged from three independent replicates of DNA microarray analysis, were shown as log2 values. (B) HeLa cells were treated with the indicated concentrations of i-CDK9 for 8 hr and the various proteins in the total cell lysates were detected by immunoblotting as indicated. Quantifications of the levels of MYC protein and Ser2-phosphoryalted Pol II (pSer2) in the lysates were shown above and below the immunoblots, respectively. […] The levels of the indicated proteins were examined by immunoblotting. (G) A HeLa-based cell line containing the stably transfected, doxycycline (Dox)-inducible MYC-F-expressing plasmid driven by the CMV promoter was pretreated with (+) or without (−) Dox prior to incubation with i-CDK9 or DMSO. MYC and MYC-F expressed from the endogenous MYC locus and the transfected plasmid, respectively, were detected by immunoblotting. DOI: http://dx.doi.org/10.7554/eLife.06535.007 Figure 3—figure supplement 1. Biphasic response of MYC mRNA production throughout the course of CDK9 inhibition by i-CDK9. DOI: http://dx.doi.org/10.7554/eLife.06535.008 [drawing 2] Figure 3—Figure supplement 2. […] DOI: http://dx.doi.org/10.7554/eLife.06535.009 [drawing 3] TEXT PRINTED IN THE PICTURE: (B) i-CDK9: Fold increase in MYC protein: 1.0 (i-CDK9 (μM): 0); Fold increase in MYC protein: 1.2 (i-CDK9 (μM): 0.01); Fold increase in MYC protein: 1.7 (i-CDK9 (μM): 0.03); Fold increase in MYC protein: 3.6 (i-CDK9 (μM): 0.1); Fold increase in MYC protein: 5.2 (i-CDK9 (μM): 0.3); Fold increase in MYC protein: 5.5 (i-CDK9 (μM): 1.0) | (C) i-CDK9: Fold increase in MYC protein: 1.0 (0.3 μM i-CDK9 (h): 0); Fold increase in MYC protein: 0.9 (0.3 μM i-CDK9 (h): 1); Fold increase in MYC protein: 1.1 (0.3 μM i-CDK9 (h): 2); Fold increase in MYC protein: 1.2 (0.3 μM i-CDK9 (h): 4); Fold increase in MYC protein: 3.3 (0.3 μM i-CDK9 (h): 8)
First, the induction of MYC protein level was confirmed in HeLa cells treated with i-CDK9. […] It took 1.0 µM i-CDK9 to cause up to 85% reduction in pSer2. In a separate time-course analysis, the 8-hr incubation with i-CDK9 (0.3 μM) induced the MYC level by 3.3-fold, whereas the same condition reduced the pSer2 level by only 40% (Figure 3C). Thus, MYC expression was highly responsive to i-CDK9 treatment and occurred at a time point earlier and drug concentration lower than those required to achieve a significant suppression of Ser2 phosphorylation on the Pol II CTD.

SMILES	MYC protein level (e.g. 4 hr, e.g. 0.1 μM)	effect on MYC induction by i-CDK9
CN1CC[C@H](c2c(O)cc(O)c3c(=O)cc(-c4ccccc4Cl)oc23)[C@H](O)C1 [Flavopiridol, flavopiridol, reference compound]	significantly elevated	
Cc1sc2c(c1C)C(c1ccc(Cl)cc1)=N[C@H](CC(=O)OC(C)(C)C)c1nnc(C)n1-2 [ctl., reference compound]		ineffective
Cc1sc2c(c1C)C(c1ccc(Cl)cc1)=N[C@@H](CC(=O)OC(C)(C)C)c1nnc(C)n1-2 [JQ1, reference compound]		completely abolished

Reference: publication PMC4490784, “Compensatory induction of MYC expression by sustained CDK9 inhibition via a BRD4-dependent mechanism” (eLife, 2015)
